# Experimental data as given in patent US20180071354A1, “SELECTIVE BREEDING METHOD OF ANTITUMOR/ANTICANCER CAMELLIA SINENSIS STRAIN, AND TEA PRODUCT OF SUCH STRAIN” (FUJIAN AGRICULTURE AND FORESTRY UNIVERSITY, priority 2015, published 2018).
# Columns and labels:
# Format in all cases: cell-based
# [1] = system: human ovarian cancer cell line SK-OV-3; experiment: In vitro antitumor/anticancer testing (CCK-8), SK-OV-3; conditions: 48 h
# Procedure: (§1) Each of Tea Product 1 and Conventional Tea Product obtained in section A of this example was used to prepare test tea samples according to the method described below. A proper amount of the respective tea product was added into sterile water to prepare a stock solution with a concentration of 100 mg/mL, followed by using a membrane filter with a pore size of 0.22 μm to conduct vacuum filtration and sterilization. The resulting stock solution was diluted with a respective complete medium shown in Table 3 below to form test tea samples with different concentrations. In other words, the thus obtained test tea samples to be used for treating a respective cancer/tumor cell line shown in Table 3 were prepared using the same complete medium as that for the respective cancer/tumor cell line. […] Specifically, each of the aforesaid commercially available agents was subjected to the method described below to prepare comparative test samples. A proper amount of a respective commercially available agent was dissolved in phosphate-buffered saline (PBS) to prepare a stock solution with a concentration of 5 mg/mL, followed by using a membrane filter with a pore size of 0.22 μm to conduct vacuum filtration and sterilization. The resulting stock solution was diluted with a respective complete medium shown in Table 3 below to form comparative test samples with different concentrations. To be specific, the comparative test samples prepared from the respective commercially available agent have the concentrations shown in Table 2 below. The thus obtained comparative test samples to be used for treating a respective cancer/tumor cell line shown in Table 3 were prepared using the same complete medium as that for the respective cancer/tumor cell line. […] The cultivation of each cancer/tumor cell line is described as follows. […] Afterwards, a cell suspension having a cell density of 1.0×10^4 cells/mL was prepared. […] As experimental groups, the tumor/cancer cells of each cell line were treated with the test tea samples prepared from one or more of the tea products and the comparative test samples prepared from one or more of the commercially available agents as obtained in section B of this example (for more detailed information about the tea product(s) and the commercially available product (s) used to treat each cell line, please see Table 4 below). To be specific, 6 to 10 test tea samples prepared from the same tea product and having different concentrations, as well as 6 to 10 comparative test samples prepared from the same commercially available agent and having different concentrations, were utilized to treat the tumor/cancer cells of each cell line. For each experimental group, 6 repetitions of tumor/cancer treatment were performed. For the control group, 100 μL of PBS was added to a well containing the medium and the cancer/tumor cells of the respective cell line. For the blank group, 100 μL of PBS was added to a well containing a complete medium the same as that used for cultivation of the cancer/tumor cells of the respective cell line. After the treatment described above, cultivation was conducted in an incubator (37° C., 100% relative humidity, 5% CO2) for 48 hours. Subsequently, the liquid containing the medium and the sample in the well was removed, and a respective complete medium (shown in Table 3 above) containing 10% CCK-8 (Cell Counting Kit-8)(Dojindo Molecular Technologies, Inc., Cat. No. CK04-13) was added. Cultivation was performed in an incubator (37° C.) for 2 to 4 hours, followed by gently shaking.
# [2] = system: human cervical cancer cell line Hela; experiment: In vitro antitumor/anticancer testing (CCK-8), Hela; conditions: 48 h
# Procedure: as §1
# [3] = system: human glioblastoma cell line U-87MG; experiment: In vitro antitumor/anticancer testing (CCK-8), U-87MG; conditions: 48 h
# Procedure: as §1
# [4] = system: human lung cancer cell line A549; experiment: In vitro antitumor/anticancer testing (CCK-8), A549; conditions: 48 h
# Procedure: as §1
# [5] = system: human prostate cancer cell line PC-3; experiment: In vitro antitumor/anticancer testing (CCK-8), PC-3; conditions: Homo sapiens, 48 h
# Procedure: Each of Tea Product 1 and Conventional Tea Product obtained in section A of this example was used to prepare test tea samples according to the method described below. A proper amount of the respective tea product was added into sterile water to prepare a stock solution with a concentration of 100 mg/mL, followed by using a membrane filter with a pore size of 0.22 μm to conduct vacuum filtration and sterilization. The resulting stock solution was diluted with a respective complete medium shown in Table 3 below to form test tea samples with different concentrations. In other words, the thus obtained test tea samples to be used for treating a respective cancer/tumor cell line shown in Table 3 were prepared using the same complete medium as that for the respective cancer/tumor cell line.
# Specifically, each of the aforesaid commercially available agents was subjected to the method described below to prepare comparative test samples. A proper amount of a respective commercially available agent was dissolved in phosphate-buffered saline (PBS) to prepare a stock solution with a concentration of 5 mg/mL, followed by using a membrane filter with a pore size of 0.22 μm to conduct vacuum filtration and sterilization. The resulting stock solution was diluted with a respective complete medium shown in Table 3 below to form comparative test samples with different concentrations. To be specific, the comparative test samples prepared from the respective commercially available agent have the concentrations shown in Table 2 below. The thus obtained comparative test samples to be used for treating a respective cancer/tumor cell line shown in Table 3 were prepared using the same complete medium as that for the respective cancer/tumor cell line.
# The following cancer/tumor cells purchased from Chinese Academy of Sciences, Shanghai Institutes for Biological Sciences, Institute of Biochemistry and Cell Biology were used for in vitro antitumor/anticancer testing: human liver cancer cell line HepG2, human ovarian cancer cell line SK-OV-3, human cervical cancer cell line Hela, human lung cancer cell line A549, human glioblastoma cell line U-87MG, human mammary gland/duct cancer cell line BT-474, human prostate cancer cell line PC-3, human leukemia cell line HL-60, human gastric cancer cell line SMMC-7721, human colon cancer cell line HCT-116, human squamous cell carcinoma cell line A431, human leukemia cell line K562, human pancreatic cancer cell line PANC-1, and human gastric cancer cell line BGC-823.
# The cultivation of each cancer/tumor cell line is described as follows. The cancer/tumor cancer cells were cultivated in the respective complete medium supplemented with 100 μg/mL penicillin and 100 μg/mL streptomycin in an incubator (37° C., 100% relative humidity, 5% CO2). When adherent cancer/tumor cells reached 80% confluence during the log-phase, cell detachment was conducted using 0.6 mL of 0.3% trypsin. Afterwards, a cell suspension having a cell density of 1.0×10^4 cells/mL was prepared. 100 μL of the cell suspension (i.e. 1000 cancer/tumor cells) was added into wells of a 96-well plate (Cat. No. 3599, Corning Costar), followed by cultivation in an incubator (37° C., 100% relative humidity, 5% CO2) for 24 hours.
# As experimental groups, the tumor/cancer cells of each cell line were treated with the test tea samples prepared from one or more of the tea products and the comparative test samples prepared from one or more of the commercially available agents as obtained in section B of this example (for more detailed information about the tea product(s) and the commercially available product (s) used to treat each cell line, please see Table 4 below). To be specific, 6 to 10 test tea samples prepared from the same tea product and having different concentrations, as well as 6 to 10 comparative test samples prepared from the same commercially available agent and having different concentrations, were utilized to treat the tumor/cancer cells of each cell line. […]
# [6] = system: human mammary gland/duct cancer cell line BT-474; experiment: In vitro antitumor/anticancer testing (CCK-8), BT-474; conditions: Homo sapiens, BT-474, 48 h
# Procedure: as §1
# [7] = system: human leukemia cell line HL-60; experiment: In vitro antitumor/anticancer testing (CCK-8), HL-60; conditions: Homo sapiens, HL-60, 48 h
# Procedure: as §1
# [8] = 0.125 μg/mL, read-out: Percent growth inhibition
# [9] = 0.25 μg/mL, read-out: Percent growth inhibition
# [10] = 0.5 μg/mL, read-out: Percent growth inhibition
# [11] = 1 μg/mL, read-out: Percent growth inhibition
# [12] = 2 μg/mL, read-out: Percent growth inhibition
# [13] = 4 μg/mL, read-out: Percent growth inhibition
# [14] = 8 μg/mL, read-out: Percent growth inhibition
# [15] = 16 μg/mL, read-out: Percent growth inhibition
# [16] = 32 μg/mL, read-out: Percent growth inhibition
compound,measurement,setting,value
N.N.[Cl][Pt][Cl] [Cisplatin],Percent growth inhibition,[1]; 0.0625 μg/mL,5.63%
same,Percent growth inhibition,[1]; 0.125 μg/mL,6.86%
same,Percent growth inhibition,[1]; 0.25 μg/mL,13.36%
same,Percent growth inhibition,[1]; 0.5 μg/mL,28.16%
same,Percent growth inhibition,[1]; 1 μg/mL,51.92%
same,Percent growth inhibition,[1]; 2 μg/mL,65.87%
same,Percent growth inhibition,[1]; 4 μg/mL,81.38%
same,Percent growth inhibition,[1]; 8 μg/mL,88.36%
same,Percent growth inhibition,[1]; 16 μg/mL,83.65%
same,IC50,[1]; SK-OV-3,IC50 (μg/mL) = 1.112
same,Percent growth inhibition,[2]; 0.0625 μg/mL,−3.05%
same,Percent growth inhibition,[2]; 0.125 μg/mL,−7.31%
same,Percent growth inhibition,[2]; 0.25 μg/mL,−11.93%
same,Percent growth inhibition,[2]; 0.5 μg/mL,−33.69%
same,Percent growth inhibition,[2]; 1 μg/mL,−29.75%
same,Percent growth inhibition,[2]; 2 μg/mL,16.62%
same,Percent growth inhibition,[2]; 4 μg/mL,90.1%
same,Percent growth inhibition,[2]; 8 μg/mL,98.3%
same,Percent growth inhibition,[2]; 16 μg/mL,98.98%
same,IC50,[2]; Hela,IC50 (μg/mL) = 2.656
same,Percent growth inhibition,[3]; 0.0625 μg/mL,2.27%
same,Percent growth inhibition,[3]; 0.125 μg/mL,1.91%
same,Percent growth inhibition,[3]; 0.25 μg/mL,0.10%
same,Percent growth inhibition,[3]; 0.5 μg/mL,2.72%
same,Percent growth inhibition,[3]; 1 μg/mL,20.84%
same,Percent growth inhibition,[3]; 2 μg/mL,43.00%
same,Percent growth inhibition,[3]; 4 μg/mL,63.60%
same,Percent growth inhibition,[3]; 8 μg/mL,85.10%
same,Percent growth inhibition,[3]; 16 μg/mL,76.01%
same,IC50,[3]; U-87MG,IC50 (μg/mL) = 2.751
same,Percent growth inhibition,[4]; 0.125 μg/mL,6.73%
same,Percent growth inhibition,[4]; 0.25 μg/mL,8.55%
same,Percent growth inhibition,[4]; 0.5 μg/mL,14.21%
same,Percent growth inhibition,[4]; 1 μg/mL,29.60%
same,Percent growth inhibition,[4]; 3 μg/mL,88.98%
same,Percent growth inhibition,[4]; 4 μg/mL,57.57%
same,Percent growth inhibition,[4]; 7 μg/mL,36.60%
same,Percent growth inhibition,[4]; 16 μg/mL,97.45%
same,IC50,[4]; A549,IC50 (μg/mL) = 2.503
COc1cccc2c1C(=O)c1c(O)c3c(c(O)c1C2=O)C[C@@](O)(C(=O)CO)C[C@@H]3O[C@H]1C[C@H](N)[C@@H](O)[C@H](C)O1 [Epirubicin],inhibition at 0.125 µg/mL,[5]; [8],32.7%
same,inhibition at 0.25 µg/mL,[5]; [9],48%
same,inhibition at 0.5 µg/mL,[5]; [10],55.1%
same,inhibition at 1 µg/mL,[5]; [11],66.1%
same,inhibition at 2 µg/mL,[5]; [12],74%
same,inhibition at 4 µg/mL,[5]; [13],82%
same,inhibition at 8 µg/mL,[5]; [14],82.8%
same,inhibition at 16 µg/mL,[5]; [15],81.6%
same,inhibition at 32 µg/mL,[5]; [16],85.6%
same,IC50,"[5]; PC-3, read-out: IC50",0.334 µg/mL
same,inhibition at 0.015625 µg/mL,"[6]; 0.015625 μg/mL, read-out: Percent growth inhibition",8.91%
same,inhibition at 0.03125 µg/mL,"[6]; 0.03125 μg/mL, read-out: Percent growth inhibition",1.2%
same,inhibition at 0.0625 µg/mL,"[6]; 0.0625 μg/mL, read-out: Percent growth inhibition",2.5%
same,inhibition at 0.125 µg/mL,[6]; [8],6.31%
same,inhibition at 0.25 µg/mL,[6]; [9],17.4%
same,inhibition at 0.5 µg/mL,[6]; [10],22.4%
same,inhibition at 1 µg/mL,[6]; [11],33.4%
same,inhibition at 2 µg/mL,[6]; [12],53.5%
same,inhibition at 4 µg/mL,[6]; [13],72.6%
same,IC50,[6]; read-out: IC50,1.7 µg/mL
COc1cc([C@@H]2c3cc4c(cc3[C@@H](O[C@@H]3O[C@@H]5CO[C@@H](C)O[C@H]5[C@H](O)[C@H]3O)[C@H]3COC(=O)[C@H]23)OCO4)cc(OC)c1O [Etoposide],inhibition at 0.125 µg/mL,[7]; [8],62.4%
same,inhibition at 0.25 µg/mL,[7]; [9],73.6%
same,inhibition at 0.5 µg/mL,[7]; [10],82.9%
same,inhibition at 1 µg/mL,[7]; [11],97.8%
same,inhibition at 2 µg/mL,[7]; [12],100%
same,inhibition at 4 µg/mL,[7]; [13],100%
same,inhibition at 8 µg/mL,[7]; [14],100%
same,inhibition at 16 µg/mL,[7]; [15],101%
same,inhibition at 32 µg/mL,[7]; [16],100%
same,IC50,[7]; read-out: IC50,0.0855 µg/mL
